Ends that are not written are not given here.
What was measured:
[1] = test system: NFκB; experiment: EMSA of nuclear extracts, basal and LPS-induced NFκB translocation in RAW 264.7 mouse macrophages; format: cell-based; settings: 30 minutes; for LPS-induced translocation of NFκB: LPS in combination with peptide (1 microgr/ml; 1 mg/ml); for Basal levels of NFκB in the nucleus: peptide without LPS
Procedure: RAW 264.7 mouse macrophages were cultured in DMEM, containing 10% or 2% FBS, penicillin, streptomycin and glutamine, at 37° C., 5% CO2. Cells were seeded in a 12-wells plate (3×10^6 cells/ml) in a total volume of 1 ml for two hours and then stimulated with LPS (E. coli 026:B6; Difco Laboratories, Detroit, Mich., USA) and/or gene-regulatory peptide (1 microgr/ml). After 30 minutes of incubation, plates were centrifuged and cells were collected for nuclear extracts. Nuclear extracts and EMSA were prepared according to Schreiber et al. Cells were collected in a tube and centrifuged for five minutes at 2000 rpm (rounds per minute) at 4° C. (Universal 30 RF, Hettich Zentrifuges). The pellet was washed with ice-cold Tris buffered saline (TBS pH 7.4) and resuspended in 400 μl of a hypotonic buffer A (10 mM HEPES pH 7.9, 10 mM KCl, 0.1 mM EDTA, 0.1 mM EGTA, 1 mM DTT, 0.5 mM PMSF and protease inhibitor cocktail (Complete™ Mini, Roche) and left on ice for 15 minutes. Twenty-five microliters 10% NP-40 was added and the sample was centrifuged (two minutes, 4000 rpm, 4° C.). The supernatant (cytoplasmic fraction) was collected and stored at −70° C. The pellet, which contains the nuclei, was washed with 50 μl buffer A and resuspended in 50 μl buffer C (20 mM HEPES pH 7.9, 400 mM NaCl, 1 mM EDTA, 1 mM EGTA, 1 mM DTT, 0.5 mM PMSF and protease inhibitor cocktail and 10% glycerol). The samples were left to shake at 4° C. for at least 60 minutes. Finally the samples were centrifuged and the supernatant (nucleic fraction) was stored at −70° C.
Bradford reagent (Sigma) was used to determine the final protein concentration in the extracts. For electrophoretic mobility shift assays an oligonucleotide representing NFκB-binding sequence (5′-AGCTCAGAGGGGGACTTTCCGAGAG-3′ (SEQ ID NO:28)) was synthesized. Hundred pico mol sense and antisense oligo were annealed and labeled with […] using T4 polynucleotide kinase according to the manufacturer's instructions (Promega, Madison, Wis.). Nuclear extract (5 to 7.5 μg) was incubated for 30 minutes with 75000 cpm probe in binding reaction mixture (20 microliters) containing 0.5 μg poly dI-dC (Amersham Pharmacia Biotech) and binding buffer BSB (25 mM MgCl2, 5 mM CaCl2, 5 mM DTT and 20% Ficoll) at room temperature. The DNA-protein complex was resolved from free oligonucleotide by electrophoresis in a 4 to 6% polyacrylamide gel (150 V, two to four hours). The gel was then dried and exposed to x-ray film. The transcription factor NFκB participates in the transcriptional regulation of a variety of genes. Nuclear protein extracts were prepared from either LPS (1 mg/ml), peptide (1 mg/ml) or LPS in combination with peptide-treated and untreated RAW264.7 cells. In order to determine whether the peptides modulate the translocation of NFκB into the nucleus, on these extracts EMSA was performed. Peptides are able to modulate the basal as well as LPS-induced levels of NFκB. In this experiment peptides that show the inhibition of LPS-induced translocation of NFκB are: […] (SEQ ID NO:21), […] (SEQ ID NO:22), LQG, LQGV (SEQ ID NO:1), […] (SEQ ID NO:23), VLPALP (SEQ ID NO:4), VVC, MTR and circular […] (SEQ ID NO: 17). Peptides that in this experiment promote LPS-induced translocation of NFκB are: VLPALPQ (SEQ ID NO:13), GVLPALP (SEQ ID NO:16) and MTRV (SEQ ID NO:20). Basal levels of NFκB in the nucleus was decreased by […] (SEQ ID NO:21), […] (SEQ ID NO:22), LQG and LQGV (SEQ ID NO:1) while basal levels of NFκB in the nucleus was increased by […] (SEQ ID NO:23), VLPALPQ (SEQ ID NO:13), GVLPALP (SEQ ID NO:16), VVC, MTRV (SEQ ID NO:20), MTR and […].

[2] = test system: relapsing-remitting multiple sclerosis; settings: treated group, trial of 251 patients; cited from earlier work
[3] = test system: production of NO by a cell; experiment: Production of NO by a cell; format: cell-based
[4] = test system: NFκB; experiment: Other experiments on translocation of NFκB into nucleus (data not shown); format: cell-based

| Substance | LPS-induced translocation of NFκB [1] | Basal levels of NFκB in the nucleus [1] | annual relapse rate reduced by [2] | production of NO by a cell [3] | modulation of translocation of NFκB into nucleus [4] |
| --- | --- | --- | --- | --- | --- |
| GVLPALP | promote | increased |  |  |  |
| GVLPALPQ | inhibition | increased |  |  |  |
| Glatiramer acetate |  |  | 25% |  |  |
| LQG | inhibition | decreased |  | capable of reducing production of NO by a cell |  |
| LQGV | inhibition | decreased |  | capable of reducing production of NO by a cell |  |
| LQGVLPALPQ | inhibition | decreased |  | capable of reducing production of NO by a cell |  |
| LQGVLPALPQVVC |  | increased |  |  |  |
| MTR | inhibition | increased |  |  |  |
| MTRV | promote | increased |  |  |  |
| QVVC |  |  |  |  | modulation of translocation of NFκB into nucleus |
| VLPALP | inhibition |  |  | capable of reducing production of NO by a cell |  |
| VLPALPQ | promote | increased |  |  |  |
| VLPALPQVVC | inhibition | decreased |  | capable of reducing production of NO by a cell |  |
| VVC | inhibition | increased |  |  |  |
| circular LQGVLPALPQVVC (also: circular/cyclised, mode not given here) | inhibition |  |  |  |  |
